Patent US20230043863A1, “HETEROAROMATIC DERIVATIVES FOR USE AS REGULATOR, PREPARATION METHOD THEREFOR AND USE THEREOF” (JIANGSU HANSOH PHARMACEUTICAL GROUP CO., LTD., priority 2018, published 2023)

Key:
[1] = system: JAK-STAT signal pathway of U266 cells; experiment: Inhibition of cellular JAK-STAT signal pathway (STAT3 phosphorylation) in U266 cells; assay type: cell-based, human; conditions: Homo sapiens, U-266, INF-a 1000 U/mL stimulation
Description: The objective of the test is to test the inhibitory activity of the compound on the cellular JAK-STAT signaling pathway.
U266 cell line was used in this experiment, by activating the JAK-STAT signaling pathway through INF-a stimulation, the inhibitory activity of the compound on its downstream STAT3 phosphorylation was detected, and the half inhibitory concentration IC50 of the compound on the JAK-STAT signaling pathway activity was obtained.
3-12 μL of U266 cell line was spread into the 384-well detection plate, and the number of cells in each well was 100-300 K, followed by addition of 2 μL of the compound solution serially diluted. The plate was incubated for 2 hours with shaking at 350 rpm at room temperature. After 2 hours, 2 μL of INF-a with a final concentration of 1000 U/mL was added. The plate was shaken at room temperature for 15 minutes. 2-5 μL (5×) LANCE Ultra Lysis Buffer 2 solution was added and the plate was shaken at room temperature for 2 hours. After 2 hours, 5 μL of LANCE Ultra Eu-labeled Anti-STAT3 Antibody (PerkinElmer) with a final concentration of 0.5 nM and LANCE Ultra ULight-labeled Anti-STAT3 Antibody (PerkinElmer) with a final concentration of 5 nM were added, and the plate was incubated overnight at room temperature. The fluorescence signal value at 665 nm of each well was measured with the microplate reader, and the inhibition rate was calculated from the fluorescence signal value. According to the inhibition rate of different concentrations, the IC50 of the compound was obtained by curve fitting.
The percentage inhibition data of the wells treated with the compound was calculated with the positive control wells (DMSO control wells) and negative control wells (no kinase added) on the plate {% inhibition rate=100-[(test compound value-negative control value)]/(Positive control value-negative control value)×100}. IC50 value was calculated by using GraphPad prism to fit the data of different concentrations and corresponding percentage inhibition rates to a 4-parameter non-linear logic formula.

JAK1 = JAK1 (Homo sapiens, UniProt P23458); experiment: JAK kinase activity inhibition, TR-FRET (JAK1); assay type: biochemical; conditions: TR-FRET kinase assay
Method in brief: (§1)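 Steps: compound dilutions added; JAK kinase (0.1-20 nM) in HEPES/MgCl2 buffer added; peptide substrate and ATP mix started the reaction, 0.5-5 h at room temperature; EDTA and labeled antibody added, 1-24 h further. IC50 derived from 620/665 nm signals by four-parameter nonlinear fitting.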

TYK2 = TYK2 (Homo sapiens, UniProt P29597); experiment: JAK kinase activity inhibition, TR-FRET (TYK2); assay type: biochemical; conditions: TR-FRET kinase assay
Method in brief: as §1

Chain of JAK1 (P23458 whole entry): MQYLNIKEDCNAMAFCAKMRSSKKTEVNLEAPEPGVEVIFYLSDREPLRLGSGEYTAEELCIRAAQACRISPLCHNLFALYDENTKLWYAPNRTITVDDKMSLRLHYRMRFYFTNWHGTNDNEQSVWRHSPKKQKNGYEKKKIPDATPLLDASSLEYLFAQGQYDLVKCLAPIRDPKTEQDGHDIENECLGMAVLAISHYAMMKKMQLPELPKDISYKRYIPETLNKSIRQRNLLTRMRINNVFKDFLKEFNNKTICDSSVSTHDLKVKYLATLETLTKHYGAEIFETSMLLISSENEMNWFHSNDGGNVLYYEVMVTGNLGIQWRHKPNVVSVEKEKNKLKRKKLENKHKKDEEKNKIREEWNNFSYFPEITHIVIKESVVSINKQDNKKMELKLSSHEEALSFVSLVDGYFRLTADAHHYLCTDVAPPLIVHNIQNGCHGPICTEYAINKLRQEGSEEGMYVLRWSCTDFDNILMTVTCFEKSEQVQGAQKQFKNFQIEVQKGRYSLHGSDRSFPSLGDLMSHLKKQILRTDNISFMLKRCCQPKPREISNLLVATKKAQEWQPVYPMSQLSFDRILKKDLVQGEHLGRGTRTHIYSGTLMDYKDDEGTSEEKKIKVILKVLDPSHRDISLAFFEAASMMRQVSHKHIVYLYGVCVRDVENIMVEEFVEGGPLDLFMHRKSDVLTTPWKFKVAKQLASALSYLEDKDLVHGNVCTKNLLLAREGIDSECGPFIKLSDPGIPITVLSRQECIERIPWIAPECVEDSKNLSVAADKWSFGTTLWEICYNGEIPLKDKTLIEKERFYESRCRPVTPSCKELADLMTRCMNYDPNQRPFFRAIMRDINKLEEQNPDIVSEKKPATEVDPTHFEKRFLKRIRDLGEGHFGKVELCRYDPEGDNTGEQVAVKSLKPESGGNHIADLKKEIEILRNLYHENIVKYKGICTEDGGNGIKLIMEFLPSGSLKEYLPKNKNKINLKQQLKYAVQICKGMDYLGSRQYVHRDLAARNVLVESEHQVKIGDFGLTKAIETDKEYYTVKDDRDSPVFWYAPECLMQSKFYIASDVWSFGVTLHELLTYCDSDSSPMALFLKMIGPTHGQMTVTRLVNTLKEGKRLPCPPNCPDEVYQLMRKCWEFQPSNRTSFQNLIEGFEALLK
Chain of TYK2 (P29597 whole entry): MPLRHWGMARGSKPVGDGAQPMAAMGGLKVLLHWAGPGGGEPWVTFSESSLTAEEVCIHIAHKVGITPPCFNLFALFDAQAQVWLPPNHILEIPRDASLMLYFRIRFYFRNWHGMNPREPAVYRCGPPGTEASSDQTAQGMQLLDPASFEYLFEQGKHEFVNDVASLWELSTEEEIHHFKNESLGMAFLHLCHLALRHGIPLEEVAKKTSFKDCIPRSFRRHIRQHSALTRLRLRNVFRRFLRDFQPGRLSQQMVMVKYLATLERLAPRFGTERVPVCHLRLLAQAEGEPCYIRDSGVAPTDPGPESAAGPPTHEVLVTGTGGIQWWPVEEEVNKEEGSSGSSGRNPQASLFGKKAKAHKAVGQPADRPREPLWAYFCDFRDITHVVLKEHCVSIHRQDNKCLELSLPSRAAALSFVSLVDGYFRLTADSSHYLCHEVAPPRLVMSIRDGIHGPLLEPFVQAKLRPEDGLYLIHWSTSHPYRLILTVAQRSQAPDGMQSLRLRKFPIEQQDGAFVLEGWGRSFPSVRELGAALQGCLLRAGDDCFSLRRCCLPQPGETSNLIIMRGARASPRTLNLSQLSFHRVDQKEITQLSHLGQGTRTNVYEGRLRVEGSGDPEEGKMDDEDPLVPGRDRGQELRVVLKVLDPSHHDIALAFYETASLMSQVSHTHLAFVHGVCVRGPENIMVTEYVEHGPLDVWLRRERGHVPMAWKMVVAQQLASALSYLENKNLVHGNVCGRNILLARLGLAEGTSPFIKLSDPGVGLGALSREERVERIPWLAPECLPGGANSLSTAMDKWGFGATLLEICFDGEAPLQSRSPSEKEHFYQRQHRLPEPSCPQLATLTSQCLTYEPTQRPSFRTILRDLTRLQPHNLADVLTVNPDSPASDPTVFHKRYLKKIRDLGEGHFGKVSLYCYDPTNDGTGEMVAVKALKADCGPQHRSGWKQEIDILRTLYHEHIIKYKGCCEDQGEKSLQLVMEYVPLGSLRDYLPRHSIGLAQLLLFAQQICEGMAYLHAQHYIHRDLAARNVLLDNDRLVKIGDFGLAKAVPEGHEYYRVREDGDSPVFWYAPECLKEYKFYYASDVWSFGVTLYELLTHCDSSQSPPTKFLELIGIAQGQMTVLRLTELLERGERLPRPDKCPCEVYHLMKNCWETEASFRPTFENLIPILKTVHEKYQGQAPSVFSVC

Compound: Cc1cc(Nc2cc3nccnc3c(N[C@@H]3C[C@H]4CC[C@@H](C3)N4CCC#N)n2)n[nH]1 [Embodiment 88, 3-((3-exo)-3-((7-((5-methyl-1H-pyrazol-3-yl)amino)pyrido[3,4-b]pyrazin-5-yl)amino)-8-azabicyclo[3.2.1]oct-8-yl)propionitrile]
- IC50 [1]: 3.1 nM
- IC50 (JAK1): 1.75 nM
- IC50 (TYK2): 3.53 nM
